The subject of assay [1] is inducing peptide construct. Kind of assay: ELISA of serum IgG antibody to the inducing (homologous) peptide construct in immunized rats. The assay is classed as in vivo, Sprague Dawley rats. Conditions: for IgG antibody levels to GGY: pre-infection sera. The protocol:
(§1) Immunogenicity of Peptides: Sprague Dawley CD strain 43 day-old male rats (Charles River Laboratories) were used for injection. Six groups of 4-5 rats were injected subcutaneously in the vicinity of the salivary glands with 50 μg each of GGY, AND, SAND or CAT peptide constructs, 10 μg of GTF, or sham-immunized with buffer alone. The initial injection included complete Freund adjuvant (CFA; Difco); two subsequent injections at 21-day intervals included incomplete Freund adjuvant. Animals were bled prior to injection and 14-21 days after each injection. Serum from coagulated and centrifuged blood was stored frozen at −20° C. until use.
(§2) ELISA: Serum IgG and salivary IgA antibodies were tested by enzyme-linked immunosorbent assay (ELISA). Polystyrene microtiter plates (Flow Laboratories) were coated with […] of each peptide construct or 0.5 μg of S. sobrinus GTF. Antibody activity was then measured by incubation with 1:100 to 1:10^6 dilutions of sera, or 1:4 to 1:32 dilutions of saliva. Plates were then developed for IgG antibody rabbit anti-rat IgG followed in sequence by alkaline phosphatase goat anti-rabbit IgG (Biosource Inc.) and p-nitrophenylphosphate (Sigma). A mouse monoclonal reagent to rat α chain (Zymed, South San Francisco, Calif.) was used with biotinylated goat anti-mouse IgG (TAGO, Inc., Burlingame, Calif.) and avidin-alkaline phosphatase (Cappel) to reveal levels of salivary IgA antibody to peptides. Reactivity was recorded as absorbance (A405 nm) in a micro plate reader (Biotek Instruments). Data are reported as absorbance (A405 nm), reciprocal titer, or as ELISA units (EU) which were calculated relative to the levels of appropriate reference sera or salivas from Sprague Dawley rats thrice immunized with the respective peptide construct. Dilutions of 1:12,800 and 1:6,400 (A405 nm approximately 1.0) were considered 100 EU for serum IgG to the GGY and AND constructs, respectively. Dilutions of 1:32 were considered 100 EU for salivary IgA to both GGY and AND constructs.
Two experiments were performed. Groups (n=11-12) of 23-26 day-old rats were subcutaneously (sc) injected in the salivary gland vicinity with (experiment 1) GGY (50 μg), AND (50 μg) or GTF(10 μg), or phosphate buffered saline (control animals), or (experiment 2) GGY (50 ;μg) or PBS. Each antigen was incorporated with complete Freund adjuvant in both experiments. Eight (experiment 1) or 14 (experiment 2) days later, rats were reinjected with PBS or with the same antigen and dose in incomplete Freund adjuvant. Six (experiment 1) or 12 (experiment 2) days after the second injection, animals were bled from the tail vein, and saliva was collected after injection of pilocarpine (1.0 mg/100 g body weight). Fourteen (experiment 1) or 11 (experiment 2) days after the second injection, all rats were orally infected with approximately 10^8 S. mutans for 3 consecutive days. Both experiments were terminated 63 days after initial infection.
Two experiments were performed to measure the effect of immunization with the eight-branched GGY and AND peptide constructs on experimental dental caries in the Sprague-Dawley rat. In the first experiment, groups of rats were immunized with GGY or AND peptide constructs. In the second experiment groups of rats were immunized only with the GGY peptide construct. Pre-infection sera and salivas were collected for antibody measurement in 39 day old rats in experiment 1 (6 days after the second injection) and 51 day old rats in experiment 2 (12 days after the second injection). In the GGY-immunized rat groups, IgG antibody levels to GGY (experiment 1=21.9+17.8 EU; experiment 2=108.0±4.0 EU) were elevated above those of the sham-immunized groups (experiment 1=1.7±0.2 EU; experiment 2=4.0±3.0 EU) in both experiments and reached statistical significance (p<0.002) in experiment 2.
A general note: An ELISA detects its analyte on a solid surface through an enzyme-linked reagent.

Assay [2] has as its system S. sobrinus GTF. The experiment in a line: ELISA of serum IgG antibody reacting with intact S. sobrinus GTF. The assay is classed as in vivo. The note with it: 63 day sera, n=4-5 per group; FIG. 3.
Description: (§3) Glucosyltransferases: Glucosyltransferases (GTF) from S. sobrinus strain 6715 were purified from culture supernatants after bacterial growth in glucose-containing defined media, as described in Taubman et al. (J. Oral Pathol. 17:466-470 (1988)). Enzymes were separated from other culture supernatant proteins by affinity chromatography on Sephadex G-100 (Pharmacia Fine Chemicals), using 6M guanidine HCl as the eluting solvent. GTFs were then obtained from the guanidine HCl eluate by FPLC chromatography on Superose 6 (Pharmacia) using 6M guanidine for elution. GTF preparations contained a mixture of GTF-I, GTF-Sd, and GTF-Si.
as §1, §2

Assay [3] concerns S. sobrinus GTF. The experiment in a line: Antibody inhibition of glucan synthesis (filter assay, 14C glucose incorporation into water-insoluble glucan). The assay is classed as biochemical, S. sobrinus strain 6715.
Description: as §3
Antibody Inhibition of Glucan Synthesis: Selected rat sera were evaluated for their ability to inhibit glucan synthesis catalyzed by S. sobrinus GTF, using a filter assay. Ten μl volumes of sera (1:100 dilutions in 0.02M sodium phosphate buffered saline and 0.02% sodium azide [PBSA], pH 6.5) were preincubated with the respective GTF for 1 hour at 37° C. in a total volume of 0.04 ml PBSA. Then 1.7 mg sucrose, 44 nCi of [^14C-glucose]-sucrose (approximately 100,000 cpm) were added in 0.2 ml PESA in the presence of 37 μg of dextran T10 (Pharmacia). Incubation proceeded for 18 hours at 37° C., after which water-insoluble glucan was collected on Whatman GF/F glass fiber filters, washed with PBSA, and radioactivity determined as described in Smith et al. (Infect. Immunity 62:5470-5476 (1994)).

In the next assay the target is T1, CAT peptide construct (Streptococcus mutans serotype c, UniProt P08987).
T1 construct: residues 442-462 of S. mutans GTF-B; purchased Applied Diagnostics, Foster City, Calif; host or cells: chemical solid phase synthesis
The experiment in a line: Cross-reactivity ELISA, plates coated with CAT peptide construct. The assay is classed as binding. The note with it: day 63 sera; FIG. 4. The protocol: as §1
ELISA: Serum IgG and salivary IgA antibodies were tested by enzyme-linked immunosorbent assay (ELISA). Polystyrene microtiter plates (Flow Laboratories) were coated with […] of each peptide construct or 0.5 μg of S. sobrinus GTF. Antibody activity was then measured by incubation with 1:100 to 1:10^6 dilutions of sera, or 1:4 to 1:32 dilutions of saliva. […] Reactivity was recorded as absorbance (A405 nm) in a micro plate reader (Biotek Instruments). Data are reported as absorbance (A405 nm), reciprocal titer, or as ELISA units (EU) which were calculated relative to the levels of appropriate reference sera or salivas from Sprague Dawley rats thrice immunized with the respective peptide construct. […]

T1 sequence (P08987 442-462 limits assumed): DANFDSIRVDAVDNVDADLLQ

GGYEFLLANDVDNSNPVVQ: in assay [1] (immunization began on day 43 of life, bled 21 days later (day 64 of life), immunogenicity experiment), the “responding rats (serum IgG)” value is 4/4. In addition, in assay [1] (immunogenicity experiment, FIG. 1), the “immunogenicity (percentage of animals responding and titer of responding sera)” value is on record as “at least as high as observed for the positive control CAT peptide”. For the same sequence, the “effect of subsequent immunization on serum IgG titers” value in assay [1] (immunogenicity experiment, day 21 (one injection) vs day 63 (three injections)) was “sufficient to induce maximal serum IgG antibody to GGY”. In assay [1] (immunogenicity experiment, rats 43 days old at start, 50 μg sc in CFA, day 21), the “serum IgG antibody to the inciting antigen after the first injection” value is on record as “induced serum IgG antibody to the inciting antigen after the first injection in all rats”. Also, the “IgG antibody levels to GGY” value in assay [1] (protection experiment 1, 39 day old rats, 6 days after the second injection) amounted to 21.9 ± 17.8 EU; in assay [1] (protection experiment 2, 51 day old rats, 12 days after the second injection, p<0.002 vs sham), 108.0±4.0 EU. Besides, the “levels of serum IgG antibody (in words)” value in assay [1] (protection experiment 1, weanling rats, two injections eight days apart, bled 14 days after onset (day 39 of life)) is “modest levels”; in assay [1] (protection experiment 2, weanling rats, two injections 14 days apart, bled day 51 of life), “significantly elevated levels of serum IgG antibody”. The “positively responding rats (serum IgG)” value in assay [1] (protection experiment 2, weanling rats, two injections 14 days apart, bled 26 days after onset (day 51 of life)) is reported as 8/11. In the assay with S. sobrinus GTF [2], the “IgG antibody reactivity with intact S. sobrinus GTF” value is reported as “significant reactivity with GTF”. Also, the “inhibition of formation of water-insoluble glucan from sucrose by S. sobrinus GTF (in words)” value with S. sobrinus GTF [3] (63 day sera from injected rats, AND p<0.01, FIG. 5) was “more variable”. Besides, the “inhibition of GTF activity” value in the assay with S. sobrinus GTF [3] (one rat serum, 63 day, relative to mean of sham sera) was 35%. Besides, the “reaction of serum IgG antibody with the CAT peptide” value at CAT peptide construct is on record as “low but significant reaction”.

Values taken from US20010048926A1, “SYNTHETIC PEPTIDE VACCINES FOR DENTAL CARIES” (priority 1992, published 2001).
